Test results: US20250345512A1, “COMBINATION SODIUM-GLUCOSE COTRANSPORTER INHIBITOR (SGLTI) INSULIN THERAPY FOR GLYCEMIC CONTROL IN TYPE 1 DIABETES” (University of Virginia Patent Foundation, priority 2022, published 2025)

System: participants with T1D
Experiment: Randomized crossover clinical trial (NCT04201496): CGM glycemic outcomes with 5 mg daily empagliflozin adjunctive to AID (Control-IQ, CIQ) or PLGS (Basal-IQ, BIQ)
Format: in vivo, human
Conditions: for % CGM time <50 mg/dL (<2.8 mmol/L) / % CGM time <60 mg/dL (<3.3 mmol/L) / % CGM time <70 mg/dL (<3.9 mmol/L) / % CGM time >180 mg/dL (>10.0 mmol/L) / % CGM time >250 mg/dL (>13.9 mmol/L) / % CGM time >300 mg/dL (>16.7 mmol/L) / CGM HBGI / CGM LBGI: median (IQR)
Method: FIG. 2 presents a study analysis relative to baseline, control IQ (CIQ) (e.g., AID), and basal IQ (BIQ) (e.g., PLGS) implementation, according to investigation that is demonstrable of one or more embodiments herein. Therein, an experimental arm (G1, G2) providing an initial daily dose of 5 mg empagliflozin (EMPA) is depicted against a control arm (G3, G4) without such dosing (NOEMPA). Relative characteristics of the analysis are provided below.
Study Design: A single-center, randomized, controlled, unblinded, crossover clinical trial (NCT04201496) compared four parallel groups, two groups in the experimental arm (EMPA) with 5 mg daily empagliflozin as adjunctive therapy to PLGS or AID, and two groups in the control arm (NOEMPA) with no drug and with a PLGS system (Basal-IQ, Tandem Diabetes Care) or AID system (Control-IQ, Tandem Diabetes Care). The groups within each arm differed from one another in the order of the randomly assigned crossover technological intervention, relative to PLGS being followed by AID or AID being followed by PLGS, respectively (FIG. 4). The study protocol was approved by the University of Virginia Institutional Review Board (IRB). An investigational device exemption (IDE), including an investigational new drug (IND) application for empagliflozin, was approved by the FDA. Safety aspects were overseen by an external data and safety monitoring board (DSMB). Participants: Major inclusion criteria were T1D treated with insulin for at least one year, use of continuous subcutaneous insulin infusion therapy for at least six months, age 18-65 yrs., no use of glucose lowering agents other than insulin, and Hb1Ac<9% (75 mmol/mol). Randomization: A (1:1:1:1) randomization assigned participants to either Group 1, AID-EMPA (4 weeks) followed by PLGS-EMPA (2 weeks), Group 2, PLGS-EMPA (2 weeks) followed by AID-EMPA (4 weeks), Group 3, AID-NOEMPA (4 weeks) followed by PLGS-NOEMPA (2 weeks), and Group 4, PLGS-NOEMPA (2 weeks) followed by AID-NOEMPA (4 weeks). Procedures: After confirmation of eligibility, participants underwent study equipment and medication training (experimental arm), or only study equipment training (control arm). Study equipment consisted of Dexcom G6® CGM (Dexcom Inc., San Diego, CA), Contour® Next blood glucose (Ascensia Diabetes Care, Basel, Switzerland) and Precision Xtra® blood ketone meters (Abbott, Alameda, CA) with their respective test strips; infusion sets, and the use of the t:slim X2™ insulin pump with Basal-IQ or Control-IQ technologies (Tandem Diabetes Care, San Diego, CA), according to randomization. […] Participants in the experimental arm were asked to record two days of baseline ketone values before initiating the use of the study drug. Thereafter, participants were directed to use the study CGM with EMPA for 1-2 weeks. A tolerance to the medication was assessed prior to the starting of the next study phase, including adherence to the protocol, ketone testing 2-4 times per day with monitored values not greater than 0.6 mmol/L on at least two successive occasions (the first testing upon waking in a fasted state), no adverse events relating to perineal infection or symptomatic postural hypotension, and no evidence of significant hypoglycemia <54 mg/dL, or any other listed adverse effects of the medication. Participants in the control arm were directed to use the study CGM for 1-2 weeks. Sample Size: The total sample size was projected to be 40 participants, assuming 1) 1:1:1:1 randomization; 2) 90% power and type 1 error a=0.01, further reinforcing the feasibility of hierarchical analyses. The projected recruitment sample was n=50, to accommodate up to 20% attrition rate without sacrificing statistical power. Analytical methods: For the primary analysis, TIR during the day in the 4-week AID period was compared between the two EMPA groups versus the two NOEMPA groups using a linear mixed-effects regression model while adjusting for pre-randomization HbAlc and age. […]

[1] = overall, CIQ-EMPA vs. BIQ-NOEMPA, BIQ-EMPA vs. CIQ-NOEMPA
[2] = overall, CIQ-EMPA vs. CIQ-NOEMPA, BIQ-EMPA vs. BIQ-NOEMPA
[3] = overall, CIQ-EMPA vs. CIQ-NOEMPA, BIQ-EMPA vs. BIQ-NOEMPA, listed as AID-EMPA
[4] = overnight, CIQ-EMPA vs. BIQ-EMPA
[5] = overnight, CIQ-EMPA vs. BIQ-EMPA, listed as AID-EMPA
[6] = overnight, CIQ-EMPA vs. BIQ-NOEMPA, BIQ-EMPA vs. CIQ-NOEMPA
[7] = overnight, CIQ-EMPA vs. CIQ-NOEMPA, BIQ-EMPA vs. BIQ-NOEMPA

OC[C@H]1O[C@@H](c2ccc(Cl)c(Cc3ccc(O[C@H]4CCOC4)cc3)c2)[C@H](O)[C@@H](O)[C@@H]1O [CIQ-EMPA, empagliflozin]
Difference: CGM HBGI [1]: −5.4 | Difference: CGM LBGI [1]: −0.1 | Difference: % CGM time >180 mg/dL (>10.0 mmol/L) [2]: −22.3 percentage points | Difference: CGM HBGI [2]: −2.7 | Difference: CGM LBGI [2]: 0 | Difference: CGM SD [2]: -12.3 mg/dL | Difference: % CGM time 70-180 mg/dL (<3.9-10.0 mmol/L) [3]: +14.7 percentage points | Difference: % CGM time >180 mg/dL (>10.0 mmol/L) [3]: −12.3 percentage points | Difference: % CGM time >250 mg/dL (>13.9 mmol/L) [3]: −4.9 percentage points | % CGM time <70-140 mg/dL (<3.9-7.8 mmol/L) (overall, n = 16, mean ± SD): 59.6 ± 13.7% | % CGM time <70-180 mg/dL (<3.9-10.0 mmol/L) (overall, n = 16, mean ± SD): 83 ± 10.6% | CGM CV (%) (overall, n = 16, mean ± SD): 29.4 ± 3.6% | CGM SD (overall, n = 16, mean ± SD): 40.5 ± 9.4 mg/dL | Mean CGM glucose (overall, n = 16, mean ± SD): 137 ± 18.6 mg/dL | % CGM time <50 mg/dL (<2.8 mmol/L) (overall, n = 16): 0(0-0.2) % | % CGM time <60 mg/dL (<3.3 mmol/L) (overall, n = 16): 0.3(0.1-0.5) % | % CGM time <70 mg/dL (<3.9 mmol/L) (overall, n = 16): 1.1(0.5-1.5) % | % CGM time >180 mg/dL (>10.0 mmol/L) (overall, n = 16): 11.5(7-19) % | % CGM time >250 mg/dL (>13.9 mmol/L) (overall, n = 16): 1.1(0.2-2.9) % | % CGM time >300 mg/dL (>16.7 mmol/L) (overall, n = 16): 0(0-0.5) % | CGM HBGI (overall, n = 16): 2.7(2-4.4) | CGM LBGI (overall, n = 16): 0.5(0.4-0.6) | Difference (95% CI): % CGM time 70 mg/dL (<3.9 mmol/L) [4]: −1.5 percentage points | Difference (95% CI): % CGM time <50 mg/dL (<2.8 mmol/L) [4]: 0.2 percentage points | Difference (95% CI): % CGM time <60 mg/dL (<3.3 mmol/L) [4]: −0.4 percentage points | Difference (95% CI): % CGM time >250 mg/dL (>13.9 mmol/L) [4]: −2.5 percentage points | Difference (95% CI): % CGM time >300 mg/dL (>16.7 mmol/L) [4]: −2.5 percentage points | Difference (95% CI): CGM CV (%) [4]: −5.1% | Difference (95% CI): CGM HBGI [4]: −2.1 | Difference (95% CI): CGM LBGI [4]: −0.5 | Difference (95% CI): CGM SD [4]: -10.2 mg/dL | Difference (95% CI): Mean CGM glucose [4]: -11.7 mg/dL | Difference (95% CI): % CGM time 70-180 mg/dL (3.9-10.0 mmol/L) [5]: +10.2 percentage points | Difference (95% CI): % CGM time >180 mg/dL (>10.0 mmol/L) [5]: −9.5 percentage points | Difference (95% CI): % CGM time <60 mg/dL (<3.3 mmol/L) [6]: −0.3 percentage points | Difference (95% CI): % CGM time >180 mg/dL (>10.0 mmol/L) [6]: −27.3 percentage points | Difference (95% CI): % CGM time >250 mg/dL (>13.9 mmol/L) [6]: −16.4 percentage points | Difference (95% CI): % CGM time >300 mg/dL (>16.7 mmol/L) [6]: −7.6 percentage points | Difference (95% CI): CGM CV (%) [6]: −11.1% | Difference (95% CI): CGM HBGI [6]: −7.3 | Difference (95% CI): CGM LBGI [6]: −0.3 | Difference (95% CI): CGM SD [6]: -27.1 mg/dL | Difference (95% CI): Mean CGM glucose [6]: -36.2 mg/dL | Difference (95% CI): % CGM time 70 mg/dL (<3.9 mmol/L) [7]: −1.1 percentage points | Difference (95% CI): % CGM time <50 mg/dL (<2.8 mmol/L) [7]: −0.1 percentage points | Difference (95% CI): % CGM time <60 mg/dL (<3.3 mmol/L) [7]: −0.6 percentage points | Difference (95% CI): % CGM time >180 mg/dL (>10.0 mmol/L) [7]: −14.6 percentage points | Difference (95% CI): % CGM time >250 mg/dL (>13.9 mmol/L) [7]: −5.5 percentage points | Difference (95% CI): CGM HBGI [7]: −3.2 | Difference (95% CI): CGM LBGI [7]: 0.2 | Difference (95% CI): CGM SD [7]: -18.3 mg/dL | Difference (95% CI): Mean CGM glucose [7]: -21.5 mg/dL | % CGM time 70-140 mg/dL (3.9-7.8 mmol/L) (overnight, n = 16, mean ± SD): 64 ± 18% | % CGM time 70-180 mg/dL (3.9-10.0 mmol/L) (overnight, n = 16, mean ± SD): 87 ± 13% | CGM CV (%) (overnight, n = 16, mean ± SD): 25.4 ± 5.4% | CGM SD (overnight, n = 16, mean ± SD): 34.2 ± 10.7 mg/dL | Mean CGM glucose (overnight, n = 16, mean ± SD): 133 ± 20 mg/dL | % CGM time <50 mg/dL (<2.8 mmol/L) (overnight, n = 16): 0(0-0.3) % | % CGM time <60 mg/dL (<3.3 mmol/L) (overnight, n = 16): 0.3(0-0.5) % | % CGM time <70 mg/dL (<3.9 mmol/L) (overnight, n = 16): 0.7(0-1.3) % | % CGM time >180 mg/dL (>10.0 mmol/L) (overnight, n = 16): 6.3(3.3-11.1) % | % CGM time >250 mg/dL (>13.9 mmol/L) (overnight, n = 16): 0(0-2) % | % CGM time >300 mg/dL (>16.7 mmol/L) (overnight, n = 16): 0(0-0.4) % | CGM HBGI (overnight, n = 16): 2.1(1.3-2.7) | CGM LBGI (overnight, n = 16): 0.4(0.2-0.5) | night-time in range, h out of 8 h (overnight, out of 8 h of the night-time, listed as AID-EMPA): 7 h
